Assay results taken from patent publication US11752122B2 (OKLAHOMA MEDICAL RESEARCH FOUNDATION, priority 2018, dated 2023).

Columns and labels:
mouse model = details: cited from earlier work
[1] = test system: ascending aortic constriction (AAC) model; assay: Cardiac fibrosis in ascending aortic constriction (AAC) model; type: in vivo, mice; details: WT C57Bl/6 mice, very low concentration, preliminary unpublished data
Text: Ascending Aortic Constriction. Ascending aortic constriction was induced by controlled constriction of the ascending aorta as described previously 26. Briefly, mice were anesthetized with 1.5% isoflurane and the ascending aorta was surgically exposed by a mid-thorax incision. A 2 7-0 suture was placed around both the aorta and an adjacent 27-gauge (0.41 mm OD) needle proximal to the origin of the innominate artery. […] Mice were sacrificed and tissues collected 1 month after the surgery.

LDLR mice on HFD = details: LDLR mice, very low concentration, preliminary unpublished data
Text: Mice. Hypercholesterolemic mice deficient for low-density lipoprotein receptors (Ldlr−/−), which only express ApoB-100 (Ldlr−/−Apob100/100, LDLR), were obtained from Jackson Laboratories (B6; 129SLdlrtm1HerApobtm2Sgy/J, stock no. 003000). WT C57bl/6 mice were also obtained from the Jackson Laboratory (stock no. 000664) and served as controls. TGF-β1^platelet-KO-LDLR mice (Pf4Cre+Tgfb1f/f;Ldlr−/−Apob100/100;) and TGF-β1^flox-LDLR littermate controls (Tgfb1f/f;Ldlr−/−Apob100/100) were generated by crossing LDLR mice with Pf4Cre+;Tgfb1f/f mice, as shown in FIGS. 7A-B and Supplemental Table 5. […] The inventor crossed Tie2Cre mice (stock no. 008863, Jackson Laboratories) with tdTomato lox-stop-lox mice (stock no. 007909, Jackson Laboratories) to generate Tie2Cre;tdTomato mice that express tdTomato only under Cre activity. All mice were housed in a controlled environment (23±2° C.; 12 hours light/dark cycles) and fed either a chow diet (CD) (PicoLab® Rodent Diet 20, 5053) or a customized high fat diet (HFD) (Harlan Teklad, TD.9612102. containing 21% milk fat (MF), 1.25% Cholesterol) in powdered form in a glass jar with perforated metal strainer (DYETS, Braintree Scientific Inc.). The Oklahoma Medical Research Foundation's Institutional Animal Care and Usage Committee approved all procedures.
Experimental Design. A total of 118 LDLR (58 Males, 60 Females) and 20 WT mice (10 Males, 10 Females) were used for this study. Half of the mice (6 weeks old) were switched to HFD and maintained for up to 9 months. Progression and severity (mild/moderate/severe) of AS were monitored at 0, 3, 6 and 9 months by echocardiography using non-invasive ultrasound imaging techniques. Five mice per cage (total of 25 males, 15 females) were treated with 2% N-acetylcysteine (NAC) (Acros Organics, 160280010) in drinking water. NAC was prepared in reverse osmosis water and its pH was adjusted to 7.4 with NaOH. Water was replaced with a fresh solution every week.
Echocardiography. Mice were anesthetized with Isoflurane (3-5% inhalation) in an induction chamber. Mice that appeared to be sick due to severe stenosis or that were underweight were anesthetized using a lower isoflurane level to prevent adverse or lethal effects from the anesthetic. Once visibly anesthetized, isoflurane was reduced to 0.5%-2% and the mouse was moved from the chamber to a nose-cone on a heated platform set at 40° C. to maintain body temperature (35±2° C.). Heavier mice were maintained at higher isoflurane levels as they appeared less sensitive to its anesthetic effects. All four limbs were taped to physiological electrodes and a rectal temperature probe was inserted. Electrode gel was used to enhance the physiologic readings. To ensure accuracy of all echo measurements, physiological parameters were monitored and recordings were only taken if the heart rate was 430-550 beats per minute, respiration was 20-100 breaths per minute, and body temperature was close to 37° C. (35±2° C.).
Measurement of AS parameters using a modified view of ultrasound imaging. Echocardiography is the gold standard non-invasive method to measure AS in humans. However, the mouse heart rate is 10-times faster (500 to 600 beats per minute), making the acquisition of high-resolution images of the very thin non-diseased valves challenging. […] LVOT was measured from the long-axis view and was used to calculate AV pressure and normalize the cusp separation (Lindman et al., 2016; Meyer et al., 2012). This view was obtained by tilting the lower left corner of the platform downward by about 30° and angling the transducer up such that it interfaced with the chest cavity by about 45°.

[2] = 2007 study; cited from earlier work

CC(=O)N[C@@H](CSN=O)C(=O)O [SNOAC, S-nitroso-N-acetylcysteine]
hypoxia-like response in gene expression (mouse model; in vitro and in vivo): induced a hypoxia-like response
blood pressure in the lungs and right ventricle of the heart (pulmonary artery hypertension) (mouse model; mice treated with acetylcysteine, metabolite SNOAC): increased

Cc1cccc(-c2nn3c(c2-c2ccnc4ccc(C(N)=O)cc24)CCC3)n1 [galunisertive]
cardiac fibrosis induced by ascending aortic constriction [1]: inhibited cardiac fibrosis
AS progression (LDLR mice on HFD): halted AS progression

CC(C)c1nc(N(C)S(C)(=O)=O)nc(-c2ccc(F)cc2)c1/C=C/[C@@H](O)C[C@@H](O)CC(=O)O [rosuvastatin]
aortic stenosis progression [2]: slowing of aortic stenosis
